Test results from patent US4188378A, “Anticancer and antiviral activity of 9-β-D-arabinofuranosyl-2-fluoroadenine” (The United States of America as represented by the …, priority 1978, dated 1980).
Read-outs that look alike come from different tables or passages of the source.

System: L1210 cells
Assay: Macromolecular synthesis in L1210 cells in culture (radiolabel incorporation)
Type: cell-based
Settings: for activity at 1 µg/mL / activity at 3 µg/mL / activity at 10 µg/mL / inhibition at 10 µg/mL: Mus musculus, L1210; for activity at 1 µg/mL: 1.0 μg/ml; for activity at 3 µg/mL: 3.0 μg/ml; for activity at 10 µg/mL: 10.0 μg/ml
Description: ^a Inhibitor was added to L1210 cells growing in culture; radioactive
substrate was added 30 min. later.
hrs after addition of radioactive substrate to culture medium.
^b Incorporation of [C^3 H3 thymidine or [5^3 Huridine
^c Incorporation of [5^3 Huridine into RNA.
^d Incorporation of [4,5^3 HL-leucine into protein.

[1] = read-out: DNA synthesis, TdR-3H incorporation, Treated as % of Control
[2] = read-out: DNA synthesis, UR-3H incorporation, Treated as % of Control
[3] = read-out: Protein synthesis, Leu-3H incorporation, Treated as % of Control
[4] = read-out: RNA synthesis, UR-3H incorporation, Treated as % of Control
[5] = same experimental conditions as Table 1

Nc1nc(F)nc2c1ncn2[C@@H]1O[C@H](CO)[C@@H](O)[C@@H]1O [2-F-AraA, 9-β-D-arabinofuranosyl-2-fluoroadenine]
DNA synthesis in L1210 cells in culture: inhibited DNA synthesis | inhibition of RNA synthesis (10 μg/ml): generally not inhibited | activity at 1 µg/mL [1]: 102% | activity at 1 µg/mL [2]: 84% | activity at 1 µg/mL [3]: 119% | activity at 1 µg/mL [4]: 135% | activity at 3 µg/mL [1]: 49% | activity at 3 µg/mL [2]: 36% | activity at 3 µg/mL [3]: 86% | activity at 3 µg/mL [4]: 163% | activity at 10 µg/mL [1]: 18% | activity at 10 µg/mL [2]: 11% | activity at 10 µg/mL [3]: 66% | activity at 10 µg/mL [4]: 137% | inhibition at 10 µg/mL (10 μg/ml, read-out: inhibition of DNA synthesis): 90% | inhibition at 10 µg/mL (10 μg/ml, read-out: inhibition of protein synthesis): 30% | Protein synthesis in L1210 cells in culture [5]: less affected | RNA synthesis in L1210 cells in culture [5]: not inhibited
